The record followed here is US20120219638A1, “Method and Compositions for Treating Plant Infections” (priority 2006, published 2012).

The test system of series [1] is Erwinia amylovora (fire blight). Briefly: Fire blight field trial on apple trees, one spray at full bloom: disease incidence and severity. In kind it is in vivo. As to conditions: for Disease incidence (# of trees): standard, concentration not given, one spray at full bloom. Here is the method:
Experimental design: Three cultivars, 8 treatments and four blocks. In each block there is one tree per cultivar per treatment (four trees per cultivar per treatment). Treatments are randomized within each cultivar in each block.
When the forecast predicts favorable conditions, treatments were applied within 24-48 hours. Note: Oxysilver compound was a mixture of oxysilver bisulphate and oxysilver nitrate, with oxysilver bisulphate as the dominant compound.
(§1) Three apple varieties (Gala, Fuji, and Golden) were treated with one spray of oxysilver at full-bloom. There were a total of eight treatments: 1. Untreated control, 2. Streptomycin standard, 3. Oxytetracycline standard, 4. Oxysilver compound 0.005% (w/v), 5. Oxysilver compound 0.05%, 6. Oxysilver compound 0.1%, 7. Oxysilver compound 0.5%, and 8. Oxysilver compound 1.0%. The trees were evaluated once a week for disease severity and phytotoxicity. Apples were harvested. Each treatment and variety combination was repeated four times. Disease incidence through blossom infections was monitored. Infections four weeks or so after bloom are not due to blossom infections and are not typically treated by growers.
(§2) Disease incidence was recorded as the number of trees showing infections per treatment. Disease severity was rated as follows: 0—No disease, 1—One—two infected shoots, 2—Two-four infected shoots, 3—Four or more infected shoots or one systemic canker, 4—Two or more systemic cankers. […] After harvest, apples from untreated trees and trees treated with 0.005% and 1% oxysilver compound were sent to an independent lab for testing of silver accumulation in the fruit. For comparison, oxysilver compound was sprayed directly on some apples.
(§3) Statistical analysis was done using SAS 9.3 Proc glimmix and Proc GLM.

Series [2] concerns apple varieties (Gala, Fuji, and Golden). Briefly: Phytotoxicity of leaf and fruit on treated apple trees. As to conditions: standard, concentration not given; for Phytotoxicity (leaf) (average): rating 0 (none) to 4 (50-100% of leaf area necrotic); for Phytotoxicity (fruit) (average): rating 0 (none) to 4 (severe deformation). Format: in vivo. Here is the method: as §1, §2, §3

The structures appear in SMILES notation.

`CN(C)[C@@H]1C(O)=C(C(N)=O)C(=O)[C@@]2(O)C(O)=C3C(=O)c4c(O)cccc4[C@@](C)(O)[C@H]3[C@H](O)[C@@H]12` [Oxytetracycline, oxytetracycline]: the “Disease incidence (# of trees)” value in series [1] was 1 ab # of trees. For the same compound, in series [2], the “Phytotoxicity (leaf) (average)” value is on record as 0 c and the “Phytotoxicity (fruit) (average)” value was 0 c.
For `[H]/N=C(/N)N[C@H]1[C@H](O)[C@@H](O)[C@H](O[C@@H]2O[C@@H](C)[C@](O)(C=O)[C@H]2O[C@@H]2O[C@@H](CO)[C@H](O)[C@@H](O)[C@@H]2NC)[C@@H](N/C(N)=N\[H])[C@@H]1O` [Streptomycin, streptomycin], the “Disease severity compared with untreated control” value in series [1] (all oxysilver treatments and streptomycin standard, p=0.05, systemic cankers in untreated control) is “significantly higher in the untreated control”. In series [1], the “Disease incidence (# of trees)” value is 1 ab # of trees. In series [2], the “Phytotoxicity (leaf) (average)” value was found to be 0 c and the “Phytotoxicity (fruit) (average)” value is 0 c.
